Test results published in PubChem BioAssay AID1963825 (Molecular Pharmacology Branch, DTP, NCI, 2024).
“And” between values parts separate entries of the source, which are not always exact repeats. Equal entries are not always repeated.

Experiment: Anticancer human tumor 997537-175-T-J1-PDC patient-derived colon adenocarcinoma cell line growth inhibition [POLQ]
Conditions: 997537-175-T-J1-PDC complex spheroid viability, combination with POLQ inhibitors; for viability, T/C: stronger effect = lower value
Summary of the method: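 Growth inhibition in 3D: complex spheroids (tumor PDC, HUVEC, MSC) treated with POLQ inhibitor combinations; where Cmax unknown, highest tested concentration 10 microM, except SN-38 at 1 microM.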

[1] = curve of first compound, second compound 0.0316 µM
[2] = curve of first compound, second compound 0.1 µM
[3] = curve of first compound, second compound 0.316 µM
[4] = curve of first compound, second compound 1 µM
[5] = curve of first compound, second compound 3.16 µM
[6] = curve of first compound, second compound 10 µM
[7] = second compound 0.0316 µM, first compound 0.0316 µM
[8] = second compound 0.0316 µM, first compound 0.1 µM
[9] = second compound 0.0316 µM, first compound 0.316 µM
[10] = second compound 0.0316 µM, first compound 1 µM
[11] = second compound 0.1 µM, first compound 0.0316 µM
[12] = second compound 0.1 µM, first compound 0.1 µM
[13] = second compound 0.1 µM, first compound 0.316 µM
[14] = second compound 0.1 µM, first compound 1 µM
[15] = second compound 0.316 µM, first compound 0.0316 µM
[16] = second compound 0.316 µM, first compound 0.1 µM
[17] = second compound 0.316 µM, first compound 0.316 µM
[18] = second compound 0.316 µM, first compound 1 µM
[19] = second compound 1 µM, first compound 0.0316 µM
[20] = second compound 1 µM, first compound 0.1 µM
[21] = second compound 1 µM, first compound 0.316 µM
[22] = second compound 1 µM, first compound 1 µM
[23] = second compound 3.16 µM, first compound 0.0316 µM
[24] = second compound 3.16 µM, first compound 0.1 µM
[25] = second compound 3.16 µM, first compound 0.316 µM
[26] = second compound 3.16 µM, first compound 1 µM
[27] = second compound 10 µM, first compound 0.0316 µM
[28] = second compound 10 µM, first compound 0.1 µM
[29] = second compound 10 µM, first compound 0.316 µM
[30] = second compound 10 µM, first compound 1 µM
[31] = second compound 0.0316 µM, first compound 3.16 µM
[32] = second compound 0.0316 µM, first compound 10 µM
[33] = second compound 0.1 µM, first compound 3.16 µM
[34] = second compound 0.1 µM, first compound 10 µM
[35] = second compound 0.316 µM, first compound 3.16 µM
[36] = second compound 0.316 µM, first compound 10 µM
[37] = second compound 1 µM, first compound 3.16 µM
[38] = second compound 1 µM, first compound 10 µM
[39] = second compound 3.16 µM, first compound 3.16 µM
[40] = second compound 3.16 µM, first compound 10 µM
[41] = second compound 10 µM, first compound 3.16 µM
[42] = second compound 10 µM, first compound 10 µM
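Also: luminescence signal used as a surrogate for viable cells; spheroids exposed to drugs for seven days before readout.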

C=CCn1c(=O)c2cnc(Nc3ccc(N4CCN(C)CC4)cc3)nc2n1-c1cccc(C(C)(C)O)n1 + COC1C(OC(N)=O)C(O)C(Oc2ccc3c(O)c(NC(=O)c4ccc(O)c(CC=C(C)C)c4)c(=O)oc3c2C)OC1(C)C
IC50 [1]: > 1000 nM
IC50 [2]: > 1000 nM
IC50 [3]: > 1000 nM
IC50 [4]: > 1000 nM
IC50 [5]: > 1000 nM
IC50 [6]: > 1000 nM
viability, T/C (second compound 0.0316 µM, first compound 0.00316 µM): 92.8%
viability, T/C (second compound 0.0316 µM, first compound 0.01 µM): 102%
viability, T/C [7]: 105%
viability, T/C [8]: 92.1%
viability, T/C [9]: 105%
viability, T/C [10]: 71%
viability, T/C (second compound 0.1 µM, first compound 0.00316 µM): 115%
viability, T/C (second compound 0.1 µM, first compound 0.01 µM): 106%
viability, T/C [11]: 91.9%
viability, T/C [12]: 92.2%
viability, T/C [13]: 81.7%
viability, T/C [14]: 66.2%
viability, T/C (second compound 0.316 µM, first compound 0.00316 µM): 88.5%
viability, T/C (second compound 0.316 µM, first compound 0.01 µM): 101%
viability, T/C [15]: 103%
viability, T/C [16]: 103%
viability, T/C [17]: 92.5%
viability, T/C [18]: 56.5%
viability, T/C (second compound 1 µM, first compound 0.00316 µM): 103%
viability, T/C (second compound 1 µM, first compound 0.01 µM): 98.6%
viability, T/C [19]: 98.2%
viability, T/C [20]: 90.3%
viability, T/C [21]: 102%
viability, T/C [22]: 87.8%
viability, T/C (second compound 3.16 µM, first compound 0.00316 µM): 115%
viability, T/C (second compound 3.16 µM, first compound 0.01 µM): 93.9%
viability, T/C [23]: 96.6%
viability, T/C [24]: 99.1%
viability, T/C [25]: 90.2%
viability, T/C [26]: 64.1%
viability, T/C (second compound 10 µM, first compound 0.00316 µM): 98%
viability, T/C (second compound 10 µM, first compound 0.01 µM): 82.5%
viability, T/C [27]: 93.3%
viability, T/C [28]: 81.4%
viability, T/C [29]: 78.5%
viability, T/C [30]: 56.4%

C#Cc1c(F)ccc2cc(O)cc(-c3ncc4c(N5CC6CCC(C5)N6)nc(OCC56CCCN5CC(F)C6)nc4c3F)c12 (stereo not given)
viability, T/C (compound 0.0316 µM): 105% and 99.2% and 101%
viability, T/C (compound 0.1 µM): 106% and 111% and 92.5%
viability, T/C (compound 0.316 µM): 92.2% and 97.5% and 113%
viability, T/C (compound 1 µM): 105% and 93.2% and 113%
viability, T/C (compound 3.16 µM): 110% and 93.3% and 94.4%
viability, T/C (compound 10 µM): 106% and 94.6% and 107%
IC50 (curve of compound): > 10000 nM

CC1COCCN1c1cc(C2(S(C)(=N)=O)CC2)nc(-c2ccnc3[nH]ccc23)n1 (stereo not given)
viability, T/C (compound 0.0316 µM): 92.8% and 97.8% and 110%
viability, T/C (compound 0.1 µM): 99.5% and 101% and 102%
viability, T/C (compound 0.316 µM): 101% and 84.7% and 82.3%
viability, T/C (compound 1 µM): 91.7% and 86.5% and 92.7%
viability, T/C (compound 3.16 µM): 66% and 59.8% and 74.8%
viability, T/C (compound 10 µM): 49.9% and 58.9% and 53.6%
IC50 (curve of compound): 9980 nM and > 10000 nM

CC1COCCN1c1cc(-c2ccnn2C)c2ccnc(-c3ccn[nH]3)c2n1 (stereo not given) + COC1C(OC(N)=O)C(O)C(Oc2ccc3c(O)c(NC(=O)c4ccc(O)c(CC=C(C)C)c4)c(=O)oc3c2C)OC1(C)C
IC50 [1]: 221 nM
IC50 [2]: 648 nM
IC50 [3]: 314 nM
IC50 [4]: 409 nM
IC50 [5]: 666 nM
IC50 [6]: > 10000 nM
viability, T/C [7]: 77.2%
viability, T/C [8]: 70.2%
viability, T/C [9]: 40.4%
viability, T/C [10]: 47%
viability, T/C [31]: 24.8%
viability, T/C [32]: 51.3%
viability, T/C [11]: 83.3%
viability, T/C [12]: 81.5%
viability, T/C [13]: 64.1%
viability, T/C [14]: 42.5%
viability, T/C [33]: 24.7%
viability, T/C [34]: 52.9%
viability, T/C [15]: 88.1%
viability, T/C [16]: 88.1%
viability, T/C [17]: 49.7%
viability, T/C [18]: 46.3%
viability, T/C [35]: 33%
viability, T/C [36]: 66.8%
viability, T/C [19]: 96.5%
viability, T/C [20]: 75%
viability, T/C [21]: 54.3%
viability, T/C [22]: 39%
viability, T/C [37]: 33.1%
viability, T/C [38]: 56.1%
viability, T/C [23]: 99.5%
viability, T/C [24]: 88.9%
viability, T/C [25]: 66.1%
viability, T/C [26]: 31.5%
viability, T/C [39]: 27.4%
viability, T/C [40]: 64.9%
viability, T/C [27]: 87%
viability, T/C [28]: 64.7%
viability, T/C [29]: 44%
viability, T/C [30]: 54%
viability, T/C [41]: 32.2%
viability, T/C [42]: 70.3%

O=C(c1cc(Cc2n[nH]c(=O)c3ccccc23)ccc1F)N1CCN(C(=O)C2CC2)CC1 + COC1C(OC(N)=O)C(O)C(Oc2ccc3c(O)c(NC(=O)c4ccc(O)c(CC=C(C)C)c4)c(=O)oc3c2C)OC1(C)C
IC50 [1]: > 10000 nM
IC50 [2]: > 10000 nM
IC50 [3]: > 10000 nM
IC50 [4]: > 10000 nM
IC50 [5]: > 10000 nM
IC50 [6]: > 10000 nM
viability, T/C [7]: 98.2%
viability, T/C [8]: 99.8%
viability, T/C [9]: 99.1%
viability, T/C [10]: 88.3%
viability, T/C [31]: 93%
viability, T/C [32]: 101%
viability, T/C [11]: 73.7%
viability, T/C [12]: 91.7%
viability, T/C [13]: 101%
viability, T/C [14]: 106%
viability, T/C [33]: 99%
viability, T/C [34]: 101%
viability, T/C [15]: 105%
viability, T/C [16]: 112%
viability, T/C [17]: 98.9%
viability, T/C [18]: 96.8%
viability, T/C [35]: 100%
viability, T/C [36]: 107%
viability, T/C [19]: 100%
viability, T/C [20]: 98%
viability, T/C [21]: 110%
viability, T/C [22]: 92.7%
viability, T/C [37]: 77.1%
viability, T/C [38]: 96.3%
viability, T/C [23]: 101%
viability, T/C [24]: 95.1%
viability, T/C [25]: 94.7%
viability, T/C [26]: 86%
viability, T/C [39]: 95.8%
viability, T/C [40]: 96.9%
viability, T/C [27]: 102%
viability, T/C [28]: 78%
viability, T/C [29]: 104%
viability, T/C [30]: 98.5%
viability, T/C [41]: 91.7%
viability, T/C [42]: 107%
